In article PMC10810714, “Antiretroviral Drug Exposure and Response in Obese and Morbidly Obese People With Human Immunodeficiency Virus (HIV): A Study Combining Modelling and Swiss HIV Cohort Data” (Clinical Infectious Diseases: An Official Publication of …, 2023):

Legend:
[1] = clinical study; cited from earlier work
[2] = PBPK model virtual trials matched to the observed studies (model verification, nonobese vs obese); design: species or system human
Excerpt: (§1) We took several steps to analyse the impact of obesity on the ARVs exposure and response. First, we implemented our in-house PBPK model with our recently published virtual White obese population to simulate the pharmacokinetics of ARVs in nonobese and obese individuals. Next, we verified the simulations against the TDM data collected during the follow-up visits of the SHCS (multiple drug levels per individual were allowed [more information on the SHCS in the homonymous section in the Supplementary Material]). We then applied the verified model to extrapolate the pharmacokinetics across different obesity classes. Finally, the clinical relevance of obesity-related changes on drug response was evaluated by analyzing HIV viral load and the corresponding TDM values in obese and nonobese individuals in the SHCS.
(§2) All ARV drug models, except for doravirine (Supplementary Table 1), were previously developed and verified to predict the pharmacokinetics in healthy and elderly PWH [6, 12]. […] The TDM data were excluded if the participant’s age was younger than 20 or older than 50 years to avoid the age-related confounding effect on the pharmacokinetics, if a nonstandard ARV dosage was used, and if concurrent medications with inhibitory or inducing effects were used. The pharmacokinetic parameters including peak plasma concentration (Cmax), area under the curve to time t (AUCt), and trough concentration (Cτ) were derived from the TDM data using noncompartmental analysis.
(§3) A literature search was also performed to identify pharmacokinetic studies with ARVs conducted in obese and nonobese individuals. Data on the study design, characteristics of the participants, and pharmacokinetic results were collected. […] Available concentration-time profiles were digitalized using GetData Graph Digitizer V.2.26. The virtual trials were conducted by matching the participants’ demographics (eg, age, proportion of females, and BMI) and the ARV dosing regimen (Supplementary Table 2). The models were considered verified if the simulations were within 2-fold of observed data.

[3] = design: method as in earlier work; conditions: PBPK model parameter, supplement reference list; cited from earlier work
HIV viral load = assay: Drug response in obese versus nonobese participants in the SHCS (concentration below efficacy threshold and viral load >50 copies/mL)
Method: The viral load was analyzed in conjunction with the TDM data to evaluate whether a decrease in ARV exposure in obese PWH is associated with a viral load of more than 50 copies/mL (the viral load measured on the date of the TDM assessment was considered for this evaluation).

[4] = Observed pharmacokinetics of antiretrovirals in nonobese and obese individuals (SHCS therapeutic drug monitoring data and literature studies, noncompartmental analysis)
Excerpt: as §1, §2, §3
The Swiss HIV Cohort Study (SHCS) is an ongoing, nationwide, multicenter, clinic-based prospective cohort study in Switzerland with continuous enrollment and follow-up (twice a year) of people with HIV (PWH). Socio-demographic, clinical and laboratory data are recorded in detail. […] The collection of therapeutic drug monitoring (TDM) data in the SHCS database was initiated in 1998. All available TDM data for each evaluated antiretroviral drug were extracted from the SHCS database representing 6210 and 575 data points for the verification of the simulations in non-obese and obese individuals, respectively.

[5] = nonobese, standard oral dose at steady state; GM (mean for etravirine, emtricitabine, tenofovir); literature studies only, ref Supplementary Table 2 [9-16, 21-24]; cited from earlier work
CYP3A4 = assay: Doravirine PBPK model parameter: CYP3A4 intrinsic clearance; assay type: in vitro ADME; conditions: Retrograde calculation
Excerpt: Supplementary Table 1. Doravirine PBPK model parameters.

[6] = design: method as in earlier work; conditions: PBPK model parameter, supplement reference list; cited from earlier work; remark: listed apart in the source

Cn1c(Cn2ccc(C(F)(F)F)c(Oc3cc(Cl)cc(C#N)c3)c2=O)n[nH]c1=O [Doravirine, doravirine]
Increase in Cτ in obese compared with nonobese PWH [1]: 22% | Cτ, Ratio (Predicted Ratio Obese/Nonobese)/(Observed Ratio Obese/Nonobese) [2]: 0.79 | AUCt, Ratio Predicted/Observed, Nonobese ([2]; nonobese individuals): 1.00 | Cmax, Ratio Predicted/Observed, Nonobese ([2]; nonobese individuals): 1.10 | Cτ, Ratio Predicted/Observed, Nonobese ([2]; nonobese individuals): 0.86 | t1/2, Ratio Predicted/Observed, Nonobese ([2]; nonobese individuals): 1.03 | Cτ, Ratio Predicted/Observed, Obese ([2]; obese individuals): 0.68 | Predictions within x-fold of observed clinical data ([2]; pharmacokinetic parameters in obese and nonobese individuals, 1.25-fold 'for the most part'): ≤ 1.25 fold | Apparent permeability [3]: 25 10^-6 cm/sec | BP (blood-plasma-ratio) [3]: 1.0 | CLrenal (renal clearance) [3]: 0.566 L/h | fup (fraction unbound in plasma) [3]: 0.24 | % PWH with concentration below efficacy threshold (HIV viral load; BMI 18.5–30 kg/m^2): 0% | % PWH with virological failure amongst those with concentration below efficacy threshold (HIV viral load; BMI 18.5–30 kg/m^2, viral load above 50 copies/mL): 0% | % PWH with concentration below efficacy threshold (HIV viral load; BMI >30 kg/m^2): 25% | % PWH with virological failure amongst those with concentration below efficacy threshold (HIV viral load; BMI >30 kg/m^2, viral load above 50 copies/mL): 0% | Cτ, observed, obese individuals ([4]; obese (BMI >=30, range per drug), standard oral dose at steady state, GM (mean for etravirine), SHCS TDM data with or without literature data): 513 ng/mL | Cτ, Ratio Obese/Nonobese, Observed ([4]; observed data): 1.27 | AUCt, observed, nonobese individuals [5]: 17 498 ng*h/mL | Cmax, observed, nonobese individuals [5]: 1226 ng/mL | Cτ, observed, nonobese individuals [5]: 404 ng/mL | t1/2, observed, nonobese individuals [5]: 13.5 h | CYP3A4 CLint (intrinsic clearance) (CYP3A4): 0.032 µl/min/pmol enzyme | drug type [6]: Monoprotic base | log P (octanol-water partition coefficient) [6]: 3.0 | pKa1 [6]: 9.5
